According to article PMC7956753, “Development of ^18F-Labeled Radiotracers for PET Imaging of the Adenosine A2A Receptor: Synthesis, Radiolabeling and Preliminary Biological Evaluation” (International Journal of Molecular Sciences, 2021):

Experiments:
[1] = Lipophilicity (LogD7.4), shake-flask method in n-octanol/PBS; format: physicochemical; conditions: pH 7.4, n-octanol-PBS, RT, n = 3
Method: (§1) The chemical stability of [^18F]PPY1 and [^18F]PPY2 was investigated in isotonic saline, phosphate-buffered saline (PBS, pH 7.4) and n-octanol by incubation at 37 °C. Samples were taken at 15, 30 and 60 min of incubation time and analyzed by radio-TLC and radio-HPLC. LogD7.4 values of [^18F]PPY1 and of [^18F]PPY2 were experimentally determined in n-octanol/PBS at RT by the shake-flask method. The measurements were performed in triplicate.

[2] = In vitro chemical stability in saline, PBS and n-octanol; format: physicochemical; conditions: 37 °C up to 60 min
Method: as §1

[3] = In vivo metabolism (radiometabolite analysis of plasma and brain by radio-HPLC); conditions: CD-1 mice, i.v., 30 min p.i., n = 2
Method: The radiotracer was administered i.v. as bolus in awake CD-1 mice (40 MBq [^18F]PPY1; 30 MBq [^18F]PPY2; n = 2, respectively). At 30 min post injection (p.i.), blood samples were taken retroorbitally from the anesthetized animals. Plasma was separated by centrifugation at 8000 rpm at RT for 1 min (Centrifuge 5418, Eppendorf Vertrieb Deutschland GmbH, Wesseling-Berzdorf, Germany), and brain homogenized in 1 mL water on ice (10 strokes of a PTFE plunge at 1000 rpm in a borosilicate glass cylinder; Potter S Homogenizer; B. Braun Melsungen AG, Melsungen, Germany). For protein precipitation and extraction an ice-cold mixture of acetone/water (4/1; v/v) was used in a ratio of 4:1 (v/v) of solvent to plasma or brain homogenate, respectively. The samples were vortexed for 3 min, equilibrated on ice for 5 min, and centrifuged for 5 min at 10,000 rpm. After separating the supernatant, the precipitates were washed with 100 µL of the solvent mixture and subjected to the same procedure. The combined supernatants were concentrated at 75 °C under nitrogen flow to a final volume of approx. 100 µL and analyzed by analytical radio-HPLC (see section quality control). To determine the percentage of activity in the supernatants compared to total activity, aliquots of each step as well as the precipitates were quantified by a gamma counter (Wallac Wizard 1480; PerkinElmer, Turku, Finland).

[4] = target: T1, A2AR (Mus musculus, UniProt Q60613); assay: In vitro autoradiography on mouse brain slices; format: binding, CD-1 mice; conditions: for fraction of total binding displaced by ZM241385 in striatum (specific binding): 10 µM ZM241385
T1 construct: Brains of CD-1 mice frozen in isopentane were cut using a cryostat; from tissue; host or cells: CD-1 mouse brain sections
T1 sequence (Q60613 whole entry): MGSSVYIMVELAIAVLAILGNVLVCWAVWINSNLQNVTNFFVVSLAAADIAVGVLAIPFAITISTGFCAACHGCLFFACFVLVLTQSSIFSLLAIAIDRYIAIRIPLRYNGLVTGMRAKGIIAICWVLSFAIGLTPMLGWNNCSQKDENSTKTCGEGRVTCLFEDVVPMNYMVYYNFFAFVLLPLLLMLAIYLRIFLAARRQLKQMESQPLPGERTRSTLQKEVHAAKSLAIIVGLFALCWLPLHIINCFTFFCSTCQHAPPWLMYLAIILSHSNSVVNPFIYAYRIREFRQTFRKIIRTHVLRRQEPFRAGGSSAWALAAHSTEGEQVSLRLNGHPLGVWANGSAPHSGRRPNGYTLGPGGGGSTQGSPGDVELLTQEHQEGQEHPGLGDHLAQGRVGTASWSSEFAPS
Method: Brains of CD-1 mice frozen in isopentane were cut using a cryostat, thaw-mounted onto microscope slides, and after air-drying stored at −80 °C until use. Briefly, the brain sections were dried in a stream of cold air, and pre-incubated in 50 mM TRIS-HCl buffer (pH 7.4, 100 mM NaCl, 5 mM MgCl2, 1 mM EDTA) containing 1 µU/mL adenosine deaminase (ADA) for 15 min at RT. Afterwards, brain sections were incubated with 0.24 MBq/mL of [^18F]PPY1 (0.2 nM) or 0.26 MBq/mL of [^18F]PPY2 (5.1 nM) in buffer for 90 min at RT. Non-specific binding was determined in the presence of 10 µM ZM241385. Displacement of both radiotracers was evaluated with 10 µM PPY1 and PPY2, respectively. Subsequently, the sections were washed twice for 5 min in ice-cold TRIS-HCl buffer, and dipped for 5 s in ice-cold deionized water. The sections were rapidly dried in a stream of cold air before being exposed overnight on an imaging plate. Developed autoradiographs were analyzed in a phosphor imager (HD-CR 35, Duerr NDT GmbH, Bietigheim-Bissingen, Germany). Quantification was performed by using 2D-densitometric analysis (AIDA 2.31 software, raytest Isotopenmessgeräte GmbH, Straubenhardt, Germany).

[5] = PET/MR imaging (brain uptake and organ distribution); format: in vivo; conditions: CD-1 mice; for SUV60 min bladder / SUV60 min small intestine: 60 min; for maximum SUV ratio of striatum-to-cerebellum: after 4 min; for initial brain uptake, standardized uptake value (SUV): between 2 and 3 min; for initial uptake in striatum and cerebellum: followed by a fast washout
Method: For the time of the experiments, CD-1 mice were kept in a dedicated climatic chamber with free access to water and food under a 12:12 h dark:light cycle at a constant temperature (24 °C). The animals were anaesthetized (anesthesia unit U-410; agntho’s; Lidingö; Sweden) with isoflurane (1.8%, 0.35 L/min) delivered in a 60% oxygen/40% air mixture (Gas Blender 100 Series, MCQ instruments, Rome, Italy) and maintained at 37 °C with a thermal bed system. The formulated radiotracer was injected into the tail vein ([^18F]PPY1: 3.2–4.3 MBq in 150 µL isotonic saline and <1% EtOH/DMSO; Am: 150 GBq/µmol; […]; Am: 80 GBq/µmol) followed by a 60 min PET/MR scan (PET/MR 1Tesla; nanoScan®, MEDISO Medical Imaging Systems, Budapest, Hungary). Each PET image was corrected for random coincidences, dead time, scatter and attenuation (AC), based on a whole body (WB) MR scan. The list mode data was sorted into sinograms using a framing scheme of 12 × 10 s, 6 × 30 s, 5 × 300 s, […]. The reconstruction parameters for the list mode data were 3D-ordered subset expectation maximization (OSEM), 4 iterations, 6 subsets, energy window: 400–600 keV, coincidence mode: 1–5, ring difference: 81. The mice were positioned prone in a special mouse bed (heated up to 37 °C), with the head fixed to a mouth piece for the anesthetic gas supply with isoflurane in 40% air and 60% oxygen (anesthesia unit: U-410, agnthos, Lidingö, Sweden; Gas blender: MCQ, Rome, Italy). The PET data were collected by a continuous WB scan during the entire investigation. Following the 60 min PET scan a T1 weighted WB gradient echo sequence (TR/TE: 20/6.4 ms, NEX: 1, FA: 25, FOV: 64 × 64 mm, matrix: 128 × 128, slice thickness: 0.5 mm) was performed for AC and anatomical orientation. Image registration and evaluation of the volume of interest (VOI) was done with PMOD 3.9 (PMOD technologies LLC, Zurich, Switzerland). The respective brain regions were identified using the mouse brain atlas template Ma-Benveniste-Mirrione-FDG. Spherical VOI with diameters of 1 to 2 mm were placed at the center of the liver, stomach, and spleen. Small intestine, kidney, and bladder VOI were delineated from the PET signal. Heart wall and blood were delineated from the T1 weighted image avoiding spill over from neighboring organs. The activity data is expressed as mean SUV of the overall VOI.

Compound | logD [1] | Stability in saline, PBS and n-octanol [2] | intact radiotracer in plasma, of total activity [3] | distribution of radiotracer binding in mouse brain [4] | fraction of total binding displaced by ZM241385 in striatum (specific binding) [4] | initial SUV in heart, spleen, stomach and liver [5] | specific binding in striatum in vivo (PET) [5] | SUV60 min bladder [5] | SUV60 min small intestine [5] | maximum SUV ratio of striatum-to-cerebellum [5] | initial brain uptake, standardized uptake value (SUV) [5] | initial uptake in striatum and cerebellum [5] | intact radiotracer in brain, of total activity [3] | intact radiotracer in brain, of total activity ([3]; listed as [18F]PPY2)
Nc1nc(-c2ccco2)c2cnn(Cc3ccc([18F])cc3)c2n1 [[^18F]PPY1] | 1.59 ± 0.15 | proven | 13% | displaceable binding was detected in various brain regions | 42% | < 3 SUV | lack of specific binding | 8.2 SUV | 21.9 SUV | 1.5 | 1.2–1.4 SUV | ~ 1.3 SUV | – | –
Nc1nc(-c2ccco2)c2cnn(Cc3ccccc3[18F])c2n1 [[^18F]PPY2] | 2.01 ± 0.16 | proven | 21% | observed in the striatum | 62% | < 3 SUV | lack of specific binding | 18.5 SUV | 6.7 SUV | 1.3 | 1.2–1.4 SUV | ~ 1.3 SUV | 83% | more than 76%
